Test results reported in US9051333B2, “6,7-dihydroimidazo [2,1-b] [1,3]oxazine bactericides” (OTSUKA PHARMACEUTICAL CO., LTD., priority 2011, dated 2015).
In brackets after ≈: the same amount, converted by molar mass.

These compounds were tested on Mycobacterium tuberculosis (M. tuberculosis kurono) (assay: Antimicrobial Assay (Agar Plate Dilution Method), M. tuberculosis kurono). Settings: 336 h, M. tuberculosis kurono, 7H11 agar medium, cultured at 37° C. for 14 days, read-out: Minimum Inhibitory Concentration.
Type: cell-based

| SMILES | MIC |
| --- | --- |
| O=[N+]([O-])c1cn2c(n1)O[C@@H](COc1ccc(N3CCC(Cc4ccc(OC(F)(F)F)cc4)CC3)cc1)CC2 [Example 383, (R)-2-nitro-7-{4-[4-(4-trifluoromethoxybenzyl)piperidin-1-yl]phenoxymethyl}-6,7-dihydro-5H-imidazo[2,1-b][1,3]oxazine] | 3 ng/mL (≈ 0.00563 µM) |
| CC1(COc2ccc(N3CCC(CCc4ccc(OC(F)(F)F)cc4)CC3)cc2)CCn2cc([N+](=O)[O-])nc2O1 (stereo not shown) [Example 382, 7-methyl-2-nitro-7-(4-{4-[2-(4-trifluoromethoxyphenyl)ethyl]piperidin-1-yl}phenoxymethyl)-6,7-dihydro-5H-imidazo[2,1-b][1,3]oxazine] | 12 ng/mL (≈ 0.0214 µM) |
| C[C@@H]1CN(c2ccc(OC[C@H]3CCn4cc([N+](=O)[O-])nc4O3)cc2)CCN1Cc1ccc(OCc2ccc(C(F)(F)F)cc2)cc1 [Example 299, (R)-7-(4-{(R)-3-methyl-4-[4-(4-trifluoromethylbenzyloxy)benzyl]piperazin-1-yl}phenoxymethyl)-2-nitro-6,7-dihydro-5H-imidazo[2,1-b][1,3]oxazine] | 0.8 ng/mL (≈ 0.00125 µM) |
| O=[N+]([O-])c1cn2c(n1)O[C@@H](COc1ccc(N3CCC(Oc4ccc(SC(F)(F)F)cc4)CC3)cc1)CC2 [Example 446, (R)-2-nitro-7-{4-[4-(4-trifluoromethylsulfanylphenoxy)piperidin-1-yl]phenoxymethyl}-6,7-dihydro-5H-imidazo[2,1-b][1,3]oxazine] | 3 ng/mL (≈ 0.00545 µM) |
| CC(C)(c1ccc(OCc2ccc(C(F)(F)F)cc2)cc1)N1CCN(c2ccc(OC[C@H]3CCn4cc([N+](=O)[O-])nc4O3)cc2)CC1 [Example 490, (R)-7-[4-(4-{1-methyl-1-[4-(4-trifluoromethylbenzyloxy)phenyl]ethyl}piperazin-1-yl)phenoxymethyl]-2-nitro-6,7-dihydro-5H-imidazo[2,1-b][1,3]oxazine] | 0.8 ng/mL (≈ 0.00123 µM) |
| O=[N+]([O-])c1cn2c(n1)OC(COc1ccc(N3CCN(CCCc4ccc(Oc5ccc(OC(F)(F)F)cc5)cc4)CC3)cc1)CC2 (stereo not shown) [Example 64, 2-nitro-7-[4-(4-{3-[4-(4-trifluoromethoxyphenoxy)phenyl]propyl}piperazin-1-yl)phenoxymethyl]-6,7-dihydro-5H-imidazo[2,1-b][1,3]oxazine] | ≤ 6 ng/mL |
| O=[N+]([O-])c1cn2c(n1)O[C@H](COc1ccc(N3CCC(Cc4ccc(OCc5ccc(C(F)(F)F)cc5)cc4)CC3)cc1)CC2 [Example 254, (S)-2-nitro-7-(4-{4-[4-(4-trifluoromethylbenzyloxy)benzyl]piperidin-1-yl}phenoxymethyl)-6,7-dihydro-5H-imidazo[2,1-b][1,3]oxazine] | 0.8 ng/mL (≈ 0.00128 µM) |
| O=[N+]([O-])c1cn2c(n1)O[C@@H](COc1ccc(N3CCC(CCCc4ccc(C(F)(F)F)cc4)CC3)cc1)CC2 [Example 400, (R)-2-nitro-7-(4-{4-[3-(4-trifluoromethylphenyl)propyl]piperidin-1-yl}phenoxymethyl)-6,7-dihydro-5H-imidazo[2,1-b][1,3]oxazine] | ≤ 0.4 ng/mL |
| CC1(COc2ccc(N3CCN(C/C=C/c4ccc(OC(F)(F)F)cc4)CC3)cc2)CCn2cc([N+](=O)[O-])nc2O1 (stereo not shown) [Example 411, 7-methyl-2-nitro-7-(4-{4-[(E)-3-(4-trifluoromethoxyphenyl)allyl]piperazin-1-yl}phenoxymethyl)-6,7-dihydro-5H-imidazo[2,1-b][1,3]oxazine] | 6 ng/mL (≈ 0.0105 µM) |
| CN(c1ccc(OC(F)(F)F)cc1)C1CCN(c2ccc(OC[C@H]3CCn4cc([N+](=O)[O-])nc4O3)cc2)CC1 [Example 90, N-methyl-N-{1-[4-((R)-2-nitro-6,7-dihydro-5H-imidazo[2,1-b][1,3]oxazin-7-ylmethoxy)phenyl]piperidin-4-yl}-N-(4-trifluoromethoxyphenyl)amine] | 12 ng/mL (≈ 0.0219 µM) |
| O=[N+]([O-])c1cn2c(n1)OC(COc1ccc(C3CCN(Cc4ccc(OC(F)(F)F)cc4)CC3)cc1)CC2 (stereo not shown) [Example 364, 2-nitro-7-{4-[1-(4-trifluoromethoxybenzyl)piperidin-4-yl]phenoxymethyl}-6,7-dihydro-5H-imidazo[2,1-b][1,3]oxazine] | 24 ng/mL (≈ 0.0451 µM) |
| O=[N+]([O-])c1cn2c(n1)O[C@@H](COc1ccc3nc(OCc4ccc(OC(F)(F)F)cc4)ccc3c1)CC2 [Example 153, 6-((R)-2-nitro-6,7-dihydro-5H-imidazo[2,1-b][1,3]oxazin-7-ylmethoxy)-2-(4-trifluoromethoxybenzyloxy)quinoline] | 24 ng/mL (≈ 0.0465 µM) |
| O=[N+]([O-])c1cn2c(n1)OC(COc1ccc(N3CCN(Cc4ccc(OC(F)(F)F)cc4)CC3)cc1)CC2 (stereo not shown) [Example 3, 2-nitro-7-{4-[4-(4-trifluoromethoxybenzyl)piperazin-1-yl]phenoxymethyl}-6,7-dihydro-5H-imidazo[2,1-b][1,3]oxazine] | 50 ng/mL (≈ 0.0937 µM) |
| O=[N+]([O-])c1cn2c(n1)O[C@@H](COc1ccc(N3CCC(CCCOc4cccc(C(F)(F)F)c4)CC3)cc1)CC2 [Example 395, (R)-2-nitro-7-(4-{4-[3-(3-trifluoromethylphenoxy)propyl]piperidin-1-yl}phenoxymethyl)-6,7-dihydro-5H-imidazo[2,1-b][1,3]oxazine] | 3 ng/mL (≈ 0.00535 µM) |
| O=[N+]([O-])c1cn2c(n1)OC(COc1ccc(N3CCC(Oc4ccc(OC(F)(F)F)cc4)CC3)cc1)CC2 (stereo not shown) [Example 1, 2-nitro-7-{4-[4-(4-trifluoromethoxyphenoxy)piperidin-1-yl]phenoxymethyl}-6,7-dihydro-5H-imidazo[2,1-b][1,3]oxazine] | 24 ng/mL (≈ 0.0449 µM) |
| C[C@@H]1CN(Cc2ccc(Oc3ccc(OC(F)(F)F)cc3)cc2)CCN1c1ccc(OC[C@H]2CCn3cc([N+](=O)[O-])nc3O2)cc1 [Example 335, (R)-7-(4-{(R)-2-methyl-4-[4-(4-trifluoromethoxyphenoxy)benzyl]piperazin-1-yl}phenoxymethyl)-2-nitro-6,7-dihydro-5H-imidazo[2,1-b][1,3]oxazine] | 1.5 ng/mL (≈ 0.00235 µM) |
| O=[N+]([O-])c1cn2c(n1)O[C@@H](COc1ccc(N3CCC(C4CCN(Cc5ccc(C(F)(F)F)cc5)CC4)CC3)cc1)CC2 [Example 415, (R)-2-nitro-7-{4-[1′-(4-trifluoromethylbenzyl)-4,4′-bipiperidin-1-yl]phenoxymethyl}-6,7-dihydro-5H-imidazo[2,1-b][1,3]oxazine] | 1.5 ng/mL (≈ 0.0025 µM) |
| O=[N+]([O-])c1cn2c(n1)O[C@@H](COc1ccc(-c3ccc(N4CCC(O)(C(F)(F)F)CC4)cc3)cc1)CC2 [Example 379, 1-[4′-((R)-2-nitro-6,7-dihydro-5H-imidazo[2,1-b][1,3]oxazin-7-ylmethoxy)biphenyl-4-yl]-4-trifluoromethylpiperidin-4-ol] | 100 ng/mL (≈ 0.193 µM) |
| O=[N+]([O-])c1cn2c(n1)O[C@@H](COc1ccc(OC3CCN(Cc4ccc(OCc5ccc(OC(F)(F)F)cc5)cc4)CC3)cc1)CC2 [Example 206, (R)-2-nitro-7-(4-{1-[4-(4-trifluoromethoxybenzyloxy)benzyl]piperidin-4-yloxy}phenoxymethyl)-6,7-dihydro-5H-imidazo[2,1-b][1,3]oxazine] | ≤ 1.5 ng/mL |
| O=[N+]([O-])c1cn2c(n1)OC(COc1ccc(N3CCC(Oc4ccc(OC(F)(F)F)cc4)CC3)c(F)c1)CC2 (stereo not shown) [Example 147, 7-{3-fluoro-4-[4-(4-trifluoromethoxyphenoxy)piperidin-1-yl]phenoxymethyl}-2-nitro-6,7-dihydro-5H-imidazo[2,1-b][1,3]oxazine] | 50 ng/mL (≈ 0.0905 µM) |
| O=[N+]([O-])c1cn2c(n1)OC(COc1ccc3c(c1)CCCN3CCCOc1ccc(OC(F)(F)F)cc1)CC2 (stereo not shown) [Example 143, 6-(2-nitro-6,7-dihydro-5H-imidazo[2,1-b][1,3]oxazin-7-ylmethoxy)-1-[3-(4-trifluoromethoxyphenoxy)propyl]-1,2,3,4-tetrahydroquinoline] | 100 ng/mL (≈ 0.182 µM) |
| COC1(c2ccc(C(F)(F)F)cc2)CCN(c2ccc(OC[C@H]3CCn4cc([N+](=O)[O-])nc4O3)cc2)CC1 [Example 471, (R)-7-{4-[4-methoxy-4-(4-trifluoromethylphenyl)piperidin-1-yl]phenoxymethyl}-2-nitro-6,7-dihydro-5H-imidazo[2,1-b][1,3]oxazine] | 12 ng/mL (≈ 0.0225 µM) |
| O=[N+]([O-])c1cn2c(n1)O[C@@H](COc1ccc(N3CCN(C/C=C/c4ccc(C(F)(F)F)cc4)CC3)cc1)CC2 [Example 372, (R)-2-nitro-7-(4-{4-[(E)-3-(4-trifluoromethylphenyl)allyl]piperazin-1-yl}phenoxymethyl)-6,7-dihydro-5H-imidazo[2,1-b][1,3]oxazine] | 6 ng/mL (≈ 0.011 µM) |
| O=[N+]([O-])c1cn2c(n1)O[C@@H](COc1ccc(N3CCN(Cc4ccc(OCc5ccc(C(F)(F)F)cc5)cc4)CC3)cc1)CC2 [Example 182, (R)-2-nitro-7-(4-{4-[4-(4-trifluoromethylbenzyloxy)benzyl]piperazin-1-yl}phenoxymethyl)-6,7-dihydro-5H-imidazo[2,1-b][1,3]oxazine] | ≤ 1.5 ng/mL |
| O=[N+]([O-])c1cn2c(n1)OC(COc1ccc(N3CCC(CCOc4ccc(OC(F)(F)F)cc4)CC3)nc1)CC2 (stereo not shown) [Example 79, 2-nitro-7-(6-{4-[2-(4-trifluoromethoxyphenoxy)ethyl]piperidin-1-yl}pyridin-3-yloxymethyl)-6,7-dihydro-5H-imidazo[2,1-b][1,3]oxazine] | 12 ng/mL (≈ 0.0213 µM) |
| O=[N+]([O-])c1cn2c(n1)OC(COc1ccc(-c3csc(-c4ccc(OC(F)(F)F)cc4)n3)cc1)CC2 (stereo not shown) [Example 56, 2-nitro-7-{4-[2-(4-trifluoromethoxyphenyl)thiazol-4-yl]phenoxymethyl}-6,7-dihydro-5H-imidazo[2,1-b][1,3]oxazine] | 12 ng/mL (≈ 0.0231 µM) |
| O=[N+]([O-])c1cn2c(n1)O[C@H](COc1ccc(-c3ccc(CN4CCC(Oc5ccc(OC(F)(F)F)cc5)CC4)cc3)cc1)CC2 [Example 282, (S)-2-nitro-7-{4′-[4-(4-trifluoromethoxyphenoxy)piperidin-1-ylmethyl]biphenyl-4-yloxymethyl}-6,7-dihydro-5H-imidazo[2,1-b][1,3]oxazine] | 6 ng/mL (≈ 0.00961 µM) |

Same assay, conditions: 336 h, read-out: Minimum Inhibitory Concentration

| SMILES | MIC |
| --- | --- |
| O=[N+]([O-])c1cn2c(n1)O[C@@H](COc1ccc(N3CCN(S(=O)(=O)C(F)(F)C(F)(F)C(F)(F)C(F)(F)F)CC3)cc1)CC2 [Example 380, (R)-2-nitro-7-{4-[4-(nonafluorobutane-1-sulfonyl)piperazin-1-yl]phenoxymethyl}-6,7-dihydro-5H-imidazo[2,1-b][1,3]oxazine] | 12 ng/mL (≈ 0.0187 µM) |
